Data as given in patent US20230309554A1, “Polymer Carriers for Delivery of Agrochemicals in Crop Plants” (Carnegie Mellon University, priority 2020, published 2023).

How the values were obtained:
tomato leaves = conditions: in vivo
Protocol: Tracer loading into star polymers. To load CV into star polymers, 10 mg of star polymer was dissolved into 5 mL of Milli Q water with pH adjusted to 7.5 by adding aliquots of 0.1M HCl and 0.1 M NaOH. 2 mg of CV was added into the star polymer solution and the mixture was vortex mixed for 24 h. The resulting solution was dialyzed against 2 L of Milli Q water for 2 cycles to remove free CV. After dialysis, the sample volume was adjusted to 20 mL to get a 0.5 g L^−1 CV loaded star polymer solution. Spreading agent Silwet L-77 was added into the star polymer solution at 0.1% (v/v) before foliar application. 20 μL of the CV loaded star polymer was applied onto tomato leaves by drop deposition.
This enhanced resolution dark-field microscope system (BX51, Olympus, USA) was equipped with a 150 W halogen light source (Fiber-Lite, Dolan-Jenner, USA) and a hyperspectral camera (CytoViva hyperspectral imaging system 1.4). […] Hyperspectral images were acquired using 100% light source intensity and 0.1 to 0.25 s acquisition per line and corrected for the lamp contribution. […]
RSP uptake and distribution in tomato leaves. RSP interactions with the plant leaf after foliar application was assessed by dark field hyperspectral imaging (DF-HSI) of crystal violet (CV) loaded RSP in tomato leaves. […]

tomato plants = test: Leaf carbon assimilation and chlorophyll fluorescence under combined heat and excess light stress; format: in vivo, Solanum lycopersicum; conditions: after heat and light stress 1.5 h
Protocol: Plant growth. […] The sterilized seeds were germinated in petri-dish on water-soaked filter paper under dark for 10 days. Afterwards, the seedlings were transplanted to 100 mL plastic cups. Each seedling was grown hydroponically using 1⁄4 strength Hoagland's solution aerated using air pumps. […] Leaf carbon assimilation rate and chlorophyll fluorescence. Plant leaf carbon assimilation and chlorophyll fluorescence was measured by a Li-Cor Li-6800 portable photosynthesis system. […] Combined heat and excess light stress. The carbon (A-Ci) and light response (A-PAR) curves of treated leaves were measured before stress conditions. […] The carbon and light response curves were measured again and compared with the curve acquired before stress. […] Light adapted ([…]) chlorophyll fluorescent test were also performed before and after stress conditions. The A-Ci curves were analyzed according to previously reported model for C3 plants: […]

Compound | Location in tomato leaf (tomato leaves) | Photosynthesis enhancement compared to control leaves (tomato plants)
CN(C)c1ccc(C(=C2C=CC(=[N+](C)C)C=C2)c2ccc(N(C)C)cc2)cc1 [CV, crystal violet] | primarily found on the leaf epidermis, with a limited amount inside the mesophyll | 
[Cl-].[Cl-].[Mg+2] [Mg^2+] |  | No significant photosynthesis enhancement
